What all share (assay): relative viability (nuclei count vs DMSO), 5 days (fraction); higher = more cells survive
Compound in assay [1]: CC(C)N(CCCNC(=O)Nc1ccc(C(C)(C)C)cc1)C[C@H]1O[C@@H](n2ccc3c(N)ncnc32)[C@H](O)[C@@H]1O + CS(=O)(=O)N1CCN(Cc2cc3nc(-c4cccc5[nH]ncc45)nc(N4CCOCC4)c3s2)CC1 [Pictilisib] (partner 1 µM)
Put shortly: (§1)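 The day after seeding in 1536-well plates, lung cancer cell lines were treated by pin tool with a single drug, or with a fixed anchor-drug dose together with five library-drug doses (not always all listed) in √10 steps. After 5 days, a combined fix-and-stain solution (final 0.05% Triton X-100, 1% formaldehyde, 1 ug/ml Hoechst) was added. Nuclei counted on 4× images gave relative viability as treated counts over vehicle counts, reported as the median of duplicate plates.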

Compound in assay [2]: CC(C)N(CCCNC(=O)Nc1ccc(C(C)(C)C)cc1)C[C@H]1O[C@@H](n2ccc3c(N)ncnc32)[C@H](O)[C@@H]1O + CC(=O)Nc1cccc(-n2c(=O)n(C3CC3)c(=O)c3c(Nc4ccc(I)cc4F)n(C)c(=O)c(C)c32)c1 [Trametinib] (partner 0.02 µM)
Put shortly:
as §1

Compound in the assay “Shikonin + Palbociclib”: CC(C)=CC[C@@H](O)C1=CC(=O)c2c(O)ccc(O)c2C1=O [Shikonin] + CC(=O)c1c(C)c2cnc(Nc3ccc(N4CCNCC4)cn3)nc2n(C2CCCC2)c1=O [Palbociclib] (partner 0.5 µM)
The method, boiled down:
as §1

Compound in assay [3]: CC(C)N(CCCNC(=O)Nc1ccc(C(C)(C)C)cc1)C[C@H]1O[C@@H](n2ccc3c(N)ncnc32)[C@H](O)[C@@H]1O + CC(=O)c1c(C)c2cnc(Nc3ccc(N4CCNCC4)cn3)nc2n(C2CCCC2)c1=O [Palbociclib] (partner 0.5 µM)
Put shortly:
as §1

For eight cell lines, relative viability results are on record in the supplement of paper PMC10307832.

Regarding NCI-H441, the relative viability stood at 0.442 in assay [1] (first compound 0.08 µM); 0.423 in assay [1] (first compound 0.253 µM); 0.361 in assay [1] (first compound 0.8 µM); 0.539 in assay [1] (first compound 2.53 µM); 0.47 in assay [1] (first compound 8 µM); 0.407 in assay [2] (first compound 0.08 µM). The relative viability worked out at 0.432 in assay [2] (first compound 0.253 µM); 0.498 in assay [2] (first compound 2.53 µM); 0.474 in assay [2] (first compound 8 µM); 0.225 with Shikonin + Palbociclib (first compound 0.01 µM); 0.219 with Shikonin + Palbociclib (first compound 0.1 µM); 0.225 with Shikonin + Palbociclib (first compound 0.3162 µM). Also, the relative viability stood at 0.231 with Shikonin + Palbociclib (first compound 1 µM); 0.203 in assay [3] (first compound 0.08 µM); 0.186 in assay [3] (first compound 0.253 µM); 0.237 in assay [3] (first compound 2.53 µM); 0.216 in assay [3] (first compound 8 µM).
NCI-H460: the relative viability amounted to 0.305 in assay [1] (first compound 0.08 µM); 0.391 in assay [1] (first compound 0.253 µM); 0.335 in assay [1] (first compound 0.8 µM); 0.381 in assay [1] (first compound 2.53 µM); 0.38 in assay [1] (first compound 8 µM); 0.103 in assay [2] (first compound 0.08 µM). Further, the relative viability is 0.0737 in assay [2] (first compound 0.253 µM); 0.0752 in assay [2] (first compound 0.8 µM); 0.127 in assay [2] (first compound 2.53 µM); 0.129 in assay [2] (first compound 8 µM); 0.166 in the assay with Shikonin + Palbociclib (first compound 0.01 µM); 0.227 with Shikonin + Palbociclib (first compound 0.1 µM). For the same cell line, the relative viability with Shikonin + Palbociclib (first compound 0.3162 µM) is 0.2; with Shikonin + Palbociclib (first compound 1 µM) it was 0.222; in assay [3] (first compound 0.08 µM), 0.207; in assay [3] (first compound 0.253 µM), 0.201; in assay [3] (first compound 0.8 µM), 0.139; in assay [3] (first compound 2.53 µM), 0.181. In addition, in assay [3] (first compound 8 µM), the relative viability worked out at 0.111.
Consider NCI-H520, for which the relative viability in assay [1] (first compound 0.08 µM) worked out at 0.273; in assay [1] (first compound 0.253 µM) it was 0.247; in assay [1] (first compound 0.8 µM) it was 0.215; in assay [1] (first compound 2.53 µM), 0.282; in assay [1] (first compound 8 µM), 0.301; in assay [2] (first compound 0.08 µM), 0.681. Besides, the relative viability worked out at 0.513 in assay [2] (first compound 0.253 µM); 0.599 in assay [2] (first compound 0.8 µM); 0.667 in assay [2] (first compound 2.53 µM); 0.695 in assay [2] (first compound 8 µM); 0.191 with Shikonin + Palbociclib (first compound 0.01 µM); 0.206 with Shikonin + Palbociclib (first compound 0.1 µM). The relative viability with Shikonin + Palbociclib (first compound 0.3162 µM) is 0.229; with Shikonin + Palbociclib (first compound 1 µM) it was 0.208; in assay [3] (first compound 0.08 µM), 0.237; in assay [3] (first compound 0.253 µM), 0.196; in assay [3] (first compound 0.8 µM), 0.191; in assay [3] (first compound 2.53 µM), 0.226. The relative viability in assay [3] (first compound 8 µM) came out at 0.25.
On to NCI-H647, for which the relative viability was 0.406 in assay [1] (first compound 0.08 µM); 0.403 in assay [1] (first compound 0.8 µM); 0.45 in assay [1] (first compound 2.53 µM); 0.372 in assay [1] (first compound 8 µM); 0.435 in assay [2] (first compound 0.08 µM); 0.368 in assay [2] (first compound 0.253 µM). For the same cell line, the relative viability in assay [2] (first compound 0.8 µM) came to 0.478; in assay [2] (first compound 2.53 µM) it was 0.467; in assay [2] (first compound 8 µM) it was 0.432; with Shikonin + Palbociclib (first compound 0.01 µM), 0.487; with Shikonin + Palbociclib (first compound 0.1 µM), 0.325; in the assay with Shikonin + Palbociclib (first compound 0.3162 µM), 0.38. For the same cell line, the relative viability was 0.361 with Shikonin + Palbociclib (first compound 1 µM); 0.35 in assay [3] (first compound 0.08 µM); 0.396 in assay [3] (first compound 0.253 µM); 0.3 in assay [3] (first compound 0.8 µM); 0.406 in assay [3] (first compound 2.53 µM); 0.421 in assay [3] (first compound 8 µM).
In the case of NCI-H650, the relative viability in assay [1] (first compound 0.08 µM) was 0.807; in assay [1] (first compound 0.253 µM), 0.907; in assay [1] (first compound 0.8 µM) it was 0.887; in assay [1] (first compound 2.53 µM), 0.867; in assay [1] (first compound 8 µM), 0.824; in assay [2] (first compound 0.08 µM) it was 0.859. Moreover, the relative viability in assay [2] (first compound 0.253 µM) is 1.06; in assay [2] (first compound 0.8 µM) it was 0.875; in assay [2] (first compound 2.53 µM), 1.03; in assay [2] (first compound 8 µM), 0.994; in the assay with Shikonin + Palbociclib (first compound 0.01 µM), 0.325; with Shikonin + Palbociclib (first compound 0.1 µM), 0.314. For the same cell line, the relative viability is 0.334 in the assay with Shikonin + Palbociclib (first compound 0.3162 µM); 0.34 in the assay with Shikonin + Palbociclib (first compound 1 µM); 0.349 in assay [3] (first compound 0.08 µM); 0.339 in assay [3] (first compound 0.253 µM); 0.323 in assay [3] (first compound 0.8 µM); 0.319 in assay [3] (first compound 2.53 µM). Also, the relative viability in assay [3] (first compound 8 µM) stood at 0.348.
Turning to NCI-H661, the relative viability in assay [1] (first compound 0.08 µM) worked out at 0.542; in assay [1] (first compound 0.253 µM), 0.281; in assay [1] (first compound 0.8 µM) it was 0.428; in assay [1] (first compound 2.53 µM) it was 0.376; in assay [1] (first compound 8 µM), 0.422; in assay [2] (first compound 0.08 µM), 0.544. The relative viability in assay [2] (first compound 0.253 µM) was 0.551; in assay [2] (first compound 0.8 µM), 0.551; in assay [2] (first compound 2.53 µM) it was 0.675; in assay [2] (first compound 8 µM) it was 0.619; in the assay with Shikonin + Palbociclib (first compound 0.01 µM), 0.405; in the assay with Shikonin + Palbociclib (first compound 0.1 µM), 0.395. The relative viability in the assay with Shikonin + Palbociclib (first compound 0.3162 µM) is 0.426; in the assay with Shikonin + Palbociclib (first compound 1 µM), 0.4; in assay [3] (first compound 0.08 µM), 0.395; in assay [3] (first compound 0.253 µM), 0.437; in assay [3] (first compound 0.8 µM), 0.45; in assay [3] (first compound 2.53 µM), 0.423. For the same cell line, the relative viability in assay [3] (first compound 8 µM) was determined as 0.423.
As for NCI-H727, the relative viability in assay [1] (first compound 0.08 µM) was found to be 0.358; in assay [1] (first compound 0.253 µM), 0.375; in assay [1] (first compound 0.8 µM) it was 0.397; in assay [1] (first compound 2.53 µM) it was 0.458; in assay [1] (first compound 8 µM), 0.331; in assay [2] (first compound 0.08 µM) it was 0.36. The relative viability in assay [2] (first compound 0.253 µM) came to 0.424; in assay [2] (first compound 0.8 µM), 0.416; in assay [2] (first compound 2.53 µM) it was 0.349; in assay [2] (first compound 8 µM), 0.396; with Shikonin + Palbociclib (first compound 0.01 µM), 0.713; in the assay with Shikonin + Palbociclib (first compound 0.1 µM), 0.603. For the same cell line, the relative viability with Shikonin + Palbociclib (first compound 0.3162 µM) came out at 0.678; with Shikonin + Palbociclib (first compound 1 µM), 0.67; in assay [3] (first compound 0.08 µM), 0.694; in assay [3] (first compound 0.253 µM), 0.578; in assay [3] (first compound 0.8 µM), 0.769; in assay [3] (first compound 2.53 µM), 0.82. Also, in assay [3] (first compound 8 µM), the relative viability came to 0.62.
NCI-H838: the relative viability in assay [1] (first compound 0.08 µM) is 0.328; in assay [1] (first compound 0.253 µM), 0.372; in assay [1] (first compound 0.8 µM), 0.425; in assay [1] (first compound 2.53 µM) it was 0.473; in assay [1] (first compound 8 µM) it was 0.494; in assay [2] (first compound 0.08 µM), 0.501. In addition, the relative viability was 0.328 in assay [2] (first compound 0.253 µM); 0.464 in assay [2] (first compound 0.8 µM); 0.559 in assay [2] (first compound 2.53 µM); 0.529 in assay [2] (first compound 8 µM); 0.231 with Shikonin + Palbociclib (first compound 0.01 µM); 0.246 in the assay with Shikonin + Palbociclib (first compound 0.1 µM). The relative viability worked out at 0.197 in the assay with Shikonin + Palbociclib (first compound 0.3162 µM); 0.243 in the assay with Shikonin + Palbociclib (first compound 1 µM); 0.217 in assay [3] (first compound 0.08 µM); 0.178 in assay [3] (first compound 0.253 µM); 0.182 in assay [3] (first compound 0.8 µM); 0.247 in assay [3] (first compound 2.53 µM). For the same cell line, the relative viability in assay [3] (first compound 8 µM) stood at 0.251.
